# Test results reported in US20020173538A1, “Method for sensitizing cancer cells to cancer therapies with a mevalonate-reducing compound” (priority 2000, published 2002).
# Where two headings read alike, the source gives them in different places. Marks after values point to notes of the source that are not given here.
# Experiments:
# [1] = MTT cell viability assay, Hep G2 cells (serum-free DMEM); details: human, Hep G2 cells, Cell viability
# Source text: (§1) Human hepatoma cell lines Hep G2 and Hep 3 were chosen as the in vitro models of hepatocytes and hepatoma, respectively.
# Hep G2 cells = assay: as above; details: for IC50: Homo sapiens; for Cell viability (cell number): LOV 50 μM 48 hr
# Source text: as §1
# Hep 3B cells = assay: MTT cell viability assay, Hep 3B cells (serum-free DMEM)
# Source text: as §1
# [2] = lovastatin 50 μM 48 hr, then no taxol 48 hr
# [3] = LOV 10 μM 48 hr, then LOV 10 μM without MVA another 24 hr
# [4] = LOV 10 μM 48 hr, then LOV 10 μM without MVA another 48 hr
# [5] = LOV 10 μM 48 hr, then LOV 10 μM without MVA another 72 hr
structure (smiles),measurement,setting,value
"CC[C@H](C)C(=O)O[C@H]1C[C@@H](C)C=C2C=C[C@H](C)[C@H](CC[C@@H]3C[C@@H](O)CC(=O)O3)[C@H]21 [Lovastatin, lovastatin]","viability at 72 h, 10 μM","[1]; lovastatin 10 μM alone, 72 hr, Table 23",57.8 ± 11.2%
same,"viability at 96 h, 10 μM","[1]; lovastatin 10 μM alone, Table 10",51.9 ± 4.4%
same,"viability at 96 h, 10 μM","[1]; lovastatin 10 μM alone, Table 21",52.4 ± 5.5%
same,"viability at 96 h, 10 μM","[1]; lovastatin 10 μM alone, Table 25",50.3 ± 4.9%
same,"viability at 72 h, 10 μM","[1]; lovastatin 10 μM, 72 hr",78.7 ± 5.3%
same,"viability at 72 h, 20 μM","[1]; lovastatin 20 μM, 72 hr",75.3 ± 4.2%
same,"viability at 48 h, 50 μM",[1]; [2],14.6 ± 1.3%
same,"viability at 72 h, 50 μM","[1]; lovastatin 50 μM, 72 hr",58.2 ± 4.2%
same,IC50,"Hep G2 cells; HepG2, 48 h, read-out: IC50 (cell viability), 48 hr, Table 3",97.2 ± 2.1 µM
same,IC50,"Hep G2 cells; HepG2, 48 h, read-out: IC50 (cell viability), 48 hr, Table 4",97.2 µM
same,IC50,"Hep G2 cells; HepG2, 48 h, read-out: IC50 of lovastatin (cell viability), 48 hr treatment",97.2 ± 2.1 µM
same,IC50,"Hep G2 cells; HepG2, 72 h, read-out: IC50 (cell viability), 72 hr, Table 3",63.6 ± 3.7 µM
same,IC50,"Hep G2 cells; HepG2, 72 h, read-out: IC50 (cell viability), 72 hr, Table 4",62.3 µM
same,IC50,"Hep G2 cells; HepG2, 72 h, read-out: IC50 of lovastatin (cell viability), 72 hr treatment",62.3 ± 3.7 µM
same,IC50,"Hep G2 cells; HepG2, 96 h, read-out: IC50 (cell viability), 96 hr",13.1 µM
same,IC50,"Hep G2 cells; HepG2, 120 h, read-out: IC50 (cell viability), 120 hr",6.2 µM
same,Cell viability (cell number),Hep G2 cells; then LOV 50 μM without MVA another 24 hr,10.6 ± 0.7^b 1 × 10^3 cells
same,Cell viability (cell number),Hep G2 cells; then LOV 50 μM without MVA another 48 hr,3.6 ± 1.6^b 1 × 10^3 cells
same,Cell viability (cell number),Hep G2 cells; then LOV 50 μM without MVA another 72 hr,1.7 ± 0.5^b 1 × 10^3 cells
same,IC50,"Hep 3B cells; Homo sapiens, Hep3B, 48 h, read-out: IC50 (cell viability), 48 hr, Table 3",62.3 ± 7.1 µM
same,IC50,"Hep 3B cells; Homo sapiens, Hep3B, 48 h, read-out: IC50 (cell viability), 48 hr, Table 4",63.6 µM
same,IC50,"Hep 3B cells; Homo sapiens, Hep3B, 48 h, read-out: IC50 of lovastatin (cell viability), 48 hr treatment",63.6 ± 7.1 µM
same,viability at 1 µM,"Hep 3B cells; Homo sapiens, Hep3B, 72 h, read-out: Cell viability, lovastatin 1 μM, 72 hr",84.1 ± 4.5%
same,viability at 2 µM,"Hep 3B cells; Homo sapiens, Hep3B, 72 h, read-out: Cell viability, lovastatin 2 μM, 72 hr",71.4 ± 3.8%
same,viability at 5 µM,"Hep 3B cells; Homo sapiens, Hep3B, 72 h, read-out: Cell viability, lovastatin 5 μM alone, 72 hr, Table 23",60.7 ± 2.4%
same,viability at 5 µM,"Hep 3B cells; Homo sapiens, Hep3B, 72 h, read-out: Cell viability, lovastatin 5 μM, 72 hr",58.8 ± 1.8%
same,viability at 10 µM,"Hep 3B cells; Homo sapiens, Hep3B, 72 h, read-out: Cell viability, lovastatin 10 μM alone, 72 hr, Table 23",48.5 ± 2.5%
same,viability at 10 µM,"Hep 3B cells; Homo sapiens, Hep3B, 72 h, read-out: Cell viability, lovastatin 10 μM, 72 hr",41.4 ± 1.5%
same,viability at 50 µM,"Hep 3B cells; Homo sapiens, Hep3B, 72 h, read-out: Cell viability, lovastatin 50 μM, 72 hr",15.2 ± 1.8%
same,IC50,"Hep 3B cells; Homo sapiens, Hep3B, 72 h, read-out: IC50 (cell viability), 72 hr, Table 3",6.8 ± 1.3 µM
same,IC50,"Hep 3B cells; Homo sapiens, Hep3B, 72 h, read-out: IC50 (cell viability), 72 hr, Table 4",6.8 µM
same,IC50,"Hep 3B cells; Homo sapiens, Hep3B, 72 h, read-out: IC50 of lovastatin (cell viability), 72 hr treatment",6.8 ± 1.3 µM
same,viability at 10 µM,"Hep 3B cells; Homo sapiens, Hep3B, 96 h, read-out: Cell viability, lovastatin 10 μM alone, 96 hr, Table 10",29.8 ± 1.2%
same,viability at 10 µM,"Hep 3B cells; Homo sapiens, Hep3B, 96 h, read-out: Cell viability, lovastatin 10 μM alone, 96 hr, Table 21",27.5 ± 8.2%
same,viability at 10 µM,"Hep 3B cells; Homo sapiens, Hep3B, 96 h, read-out: Cell viability, lovastatin 10 μM alone, 96 hr, Table 25",28.6 ± 1.7%
same,IC50,"Hep 3B cells; Homo sapiens, Hep3B, 96 h, read-out: IC50 (cell viability), 96 hr",5.9 µM
same,IC50,"Hep 3B cells; Homo sapiens, Hep3B, 120 h, read-out: IC50 (cell viability), 120 hr",1.3 µM
same,Cell viability,"Hep 3B cells; LOV 1 μM, 48 hr",90.2 ± 0.3^b % of control
same,Cell viability,"Hep 3B cells; LOV 2 μM, 48 hr",86.1 ± 2.0^bc % of control
same,Cell viability,"Hep 3B cells; LOV 5 μM, 48 hr",78.6 ± 4.7^cd % of control
same,Cell viability,"Hep 3B cells; LOV 5 μM, 48 hr, Table 4",78.6 ± 4.7^b % of control
same,Cell viability,"Hep 3B cells; LOV 5 μM, 96 hr",56.4 ± 5.1^c % of control
same,Cell viability,"Hep 3B cells; LOV 5 μM, 120 hr",20.3 ± 3.6^d % of control
same,Cell viability,Hep 3B cells; [3],52.6 ± 2.6^b % of control
same,Cell viability (cell number),Hep 3B cells; [3],5.3 ± 0.1^b 1 × 10^3 cells
same,Cell viability,Hep 3B cells; [4],7.3 ± 0.5^b % of control
same,Cell viability (cell number),Hep 3B cells; [4],1.0 ± 0.1^b 1 × 10^3 cells
same,Cell viability,Hep 3B cells; [5],3.2 ± 1.8^b % of control
same,Cell viability (cell number),Hep 3B cells; [5],0.6 ± 0.5^b 1 × 10^3 cells
same,Cell viability,"Hep 3B cells; LOV 10 μM, 48 hr",66.4 ± 0.8^de % of control
same,Cell viability,"Hep 3B cells; LOV 10 μM, 48 hr, Table 4",66.4 ± 0.8^b % of control
same,Cell viability,"Hep 3B cells; LOV 10 μM, 96 hr",31.7 ± 2.7^d % of control
same,Cell viability,"Hep 3B cells; LOV 10 μM, 120 hr",6.9 ± 1.3^e % of control
same,Cell viability,"Hep 3B cells; LOV 20 μM, 48 hr",55.7 ± 6.6^ef % of control
same,Cell viability,"Hep 3B cells; LOV 50 μM, 48 hr",52.2 ± 1.9^f % of control
same,Cell viability,"Hep 3B cells; lovastatin 5 μM 48 hr, then no CAPE 48 hr",64.3 ± 5.5 % of control
same,Cell viability,"Hep 3B cells; lovastatin 5 μM 48 hr, then no taxol 48 hr",49.8 ± 7.8 % of control
same,Cell viability,"Hep 3B cells; lovastatin 5 μM 72 hr, then no taxol 48 hr",27.7 ± 2.0 % of control
same,Cell viability,"Hep 3B cells; lovastatin 5 μM 72 hr, then no taxol 72 hr",13.0 ± 3.0 % of control
same,Cell viability,"Hep 3B cells; lovastatin 10 μM 48 hr, then no CAO 48 hr",47.9 ± 6.1^de % of control
same,Cell viability,"Hep 3B cells; lovastatin 10 μM 48 hr, then no CAPE 48 hr",59.3 ± 4.5^d % of control
same,Cell viability,"Hep 3B cells; lovastatin 10 μM 48 hr, then no GL-M1 48 hr",53.6 ± 8.2^c % of control
same,Cell viability,"Hep 3B cells; lovastatin 10 μM 48 hr, then no taxol 48 hr",45.7 ± 3.1^d % of control
same,Cell viability,"Hep 3B cells; lovastatin 10 μM 72 hr, then no taxol 48 hr",20.4 ± 7.0^c % of control
same,Cell viability,"Hep 3B cells; lovastatin 10 μM 72 hr, then no taxol 72 hr",14.7 ± 3.6^d % of control
same,Cell viability,Hep 3B cells; [2],2.9 ± 4.1 % of control
